Source: US20230085307A1, “PYRIDAZINONE COMPOUND AND HERBICIDE” (NISSAN CHEMICAL CORPORATION, priority 2019, published 2023)

Legend:
[1] = tested on: barnyard grass; experiment: Test Example 3: herbicidal effect by foliage application, Wagner pot (Table 18, symbol H); format: in vivo, barnyard grass (Echinochloa crus-galli)
In short: (§1)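 Plants were sown in alluvial soil held under 0.1–0.5 cm standing water and grown 14 days in a greenhouse at 25–30 °C. An emulsifiable formulation, water-diluted to the set dose, was then sprayed onto the foliage, and effects were scored three weeks later using previously defined criteria.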

[2] = tested on: Chinese sprangletop; experiment: Test Example 3: herbicidal effect by foliage application, Wagner pot (Table 18, symbol D); format: in vivo, chinese sprangletop (Leptochloa chinensis)
In short: as §1

[3] = tested on: rice flat sedge; experiment: Test Example 3: herbicidal effect by foliage application, Wagner pot (Table 18, symbol E); format: in vivo, rice flat sedge (Cyperus iria)
In short: as §1

[4] = tested on: southern crabgrass; experiment: Test Example 4: herbicidal effect by soil treatment (Table 19, symbol F); format: in vivo, southern crabgrass (Digitaria ciliaris); conditions: amount of applied herbicide 320 g/ha
In short: (§2)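 Emulsion of test compound, water-diluted to predetermined amount, sprayed on soil after sowing (seed depth ~1.5 cm, sterilized diluvial soil). Greenhouse, 25–30° C. Effect graded at three weeks post-spray.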

[5] = tested on: green foxtail; experiment: Test Example 4: herbicidal effect by soil treatment (Table 19, symbol G); format: in vivo, green foxtail (Setaria viridis); conditions: amount of applied herbicide 320 g/ha
In short: as §2

[6] = tested on: barnyard grass; experiment: Test Example 4: herbicidal effect by soil treatment (Table 19, symbol H); format: in vivo, barnyard grass (Echinochloa crus-galli); conditions: amount of applied herbicide 320 g/ha
In short: as §2

[7] = tested on: wild oat; experiment: Test Example 4: herbicidal effect by soil treatment (Table 19, symbol I); format: in vivo, wild oat (Avena fatua); conditions: amount of applied herbicide 320 g/ha
In short: as §2

[8] = tested on: blackgrass; experiment: Test Example 4: herbicidal effect by soil treatment (Table 19, symbol J); format: in vivo, blackgrass (Alopecurus myosuroides); conditions: amount of applied herbicide 320 g/ha
In short: as §2

[9] = tested on: Italian ryegrass; experiment: Test Example 4: herbicidal effect by soil treatment (Table 19, symbol K); format: in vivo, Italian ryegrass (Lolium multiflorum); conditions: amount of applied herbicide 320 g/ha
In short: as §2

[10] = tested on: windgrass; experiment: Test Example 4: herbicidal effect by soil treatment (Table 19, symbol L); format: in vivo, windgrass (Apera spica-venti); conditions: amount of applied herbicide 320 g/ha
In short: as §2

[11] = tested on: velvetleaf; experiment: Test Example 4: herbicidal effect by soil treatment (Table 19, symbol M); format: in vivo, velvetleaf (Abutilon theophrasti); conditions: amount of applied herbicide 320 g/ha
In short: as §2

[12] = tested on: redroot pigweed; experiment: Test Example 4: herbicidal effect by soil treatment (Table 19, symbol N); format: in vivo, redroot pigweed (Amaranthus retroflexus); conditions: amount of applied herbicide 320 g/ha
In short: as §2

[13] = tested on: lambsquarters; experiment: Test Example 4: herbicidal effect by soil treatment (Table 19, symbol O); format: in vivo, lambsquarters (Chenopodium album); conditions: amount of applied herbicide 320 g/ha
In short: as §2

[14] = tested on: chickweed; experiment: Test Example 4: herbicidal effect by soil treatment (Table 19, symbol P); format: in vivo, common chickweed (Stellaria media); conditions: amount of applied herbicide 320 g/ha
In short: as §2

[15] = tested on: persian speedwell; experiment: Test Example 4: herbicidal effect by soil treatment (Table 19, symbol R); format: in vivo, Persian speedwell (Veronica persica); conditions: amount of applied herbicide 320 g/ha
In short: as §2

[16] = tested on: southern crabgrass; experiment: Test Example 5: herbicidal effect by foliage application, plastic box (Table 20, symbol F); format: in vivo, southern crabgrass (Digitaria ciliaris); conditions: 320 g/ha, evaluated three weeks after application
In short: (§3)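 Post-emergence foliar test in sterilized diluvial soil. Compound applied as water-diluted emulsion at a predetermined rate to 14-day-old plants; evaluation at three weeks.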

[17] = tested on: green foxtail; experiment: Test Example 5: herbicidal effect by foliage application, plastic box (Table 20, symbol G); format: in vivo, green foxtail (Setaria viridis); conditions: 320 g/ha, evaluated three weeks after application
In short: as §3

[18] = tested on: barnyard grass; experiment: Test Example 5: herbicidal effect by foliage application, plastic box (Table 20, symbol H); format: in vivo, barnyard grass (Echinochloa crus-galli); conditions: 320 g/ha, evaluated three weeks after application
In short: as §3

[19] = tested on: wild oat; experiment: Test Example 5: herbicidal effect by foliage application, plastic box (Table 20, symbol I); format: in vivo, wild oat (Avena fatua); conditions: 320 g/ha, evaluated three weeks after application
In short: as §3

[20] = tested on: blackgrass; experiment: Test Example 5: herbicidal effect by foliage application, plastic box (Table 20, symbol J); format: in vivo, blackgrass (Alopecurus myosuroides); conditions: 320 g/ha, evaluated three weeks after application
In short: as §3

[21] = tested on: Italian ryegrass; experiment: Test Example 5: herbicidal effect by foliage application, plastic box (Table 20, symbol K); format: in vivo, Italian ryegrass (Lolium multiflorum); conditions: 320 g/ha, evaluated three weeks after application
In short: as §3

[22] = tested on: velvetleaf; experiment: Test Example 5: herbicidal effect by foliage application, plastic box (Table 20, symbol M); format: in vivo, velvetleaf (Abutilon theophrasti); conditions: 320 g/ha, evaluated three weeks after application
In short: as §3

[23] = tested on: redroot pigweed; experiment: Test Example 5: herbicidal effect by foliage application, plastic box (Table 20, symbol N); format: in vivo, redroot pigweed (Amaranthus retroflexus); conditions: 320 g/ha, evaluated three weeks after application
In short: as §3

[24] = tested on: lambsquarters; experiment: Test Example 5: herbicidal effect by foliage application, plastic box (Table 20, symbol O); format: in vivo, lambsquarters (Chenopodium album); conditions: 320 g/ha, evaluated three weeks after application
In short: as §3

[25] = tested on: chickweed; experiment: Test Example 5: herbicidal effect by foliage application, plastic box (Table 20, symbol P); format: in vivo, common chickweed (Stellaria media); conditions: 320 g/ha, evaluated three weeks after application
In short: as §3

[26] = tested on: persian speedwell; experiment: Test Example 5: herbicidal effect by foliage application, plastic box (Table 20, symbol R); format: in vivo, Persian speedwell (Veronica persica); conditions: 320 g/ha, evaluated three weeks after application
In short: as §3

[27] = amount of applied herbicide 320 g/ha
[28] = foliage application after 14-day growth

SMILES: COc1cccc(-c2sc3ccc(F)cc3c2-c2c(O)c(C)nn(C)c2=O)c1 [2-209]
- herbicidal effect on H: barnyard grass [1, 27]: 5 (Herbicidal rate of 90% or more (almost completely withered))
- herbicidal effect on D: Chinese sprangletop [2, 27]: 4 (Herbicidal rate of 70% or more and less than 90%)
- herbicidal effect on E: rice flat sedge [3, 27]: 5 (Herbicidal rate of 90% or more (almost completely withered))
- F: southern crabgrass, herbicidal effect rating [4]: 5 (Herbicidal rate of 90% or more (almost completely withered))
- G: green foxtail, herbicidal effect rating [5]: 5 (Herbicidal rate of 90% or more (almost completely withered))
- H: barnyard grass, herbicidal effect rating [6]: 4 (Herbicidal rate of 70% or more and less than 90%)
- I: wild oat, herbicidal effect rating [7]: 0 (Herbicidal rate of 5% or less (almost no effect))
- J: blackgrass, herbicidal effect rating [8]: 0 (Herbicidal rate of 5% or less (almost no effect))
- K: Italian ryegrass, herbicidal effect rating [9]: 2 (Herbicidal rate of 20% or more and less than 40%)
- L: windgrass, herbicidal effect rating [10]: 0 (Herbicidal rate of 5% or less (almost no effect))
- M: velvetleaf, herbicidal effect rating [11]: 2 (Herbicidal rate of 20% or more and less than 40%)
- N: redroot pigweed, herbicidal effect rating [12]: 4 (Herbicidal rate of 70% or more and less than 90%)
- O: lambsquarters, herbicidal effect rating [13]: 5 (Herbicidal rate of 90% or more (almost completely withered))
- P: chickweed, herbicidal effect rating [14]: 4 (Herbicidal rate of 70% or more and less than 90%)
- R: persian speedwell, herbicidal effect rating [15]: 1 (Herbicidal rate of 5% or more and less than 20%)
- herbicidal effect on F: southern crabgrass (criteria 0-5) ([16]; foliage application): 5 (Herbicidal rate of 90% or more (almost completely withered))
- herbicidal effect on G: green foxtail (criteria 0-5) ([17]; foliage application): 5 (Herbicidal rate of 90% or more (almost completely withered))
- herbicidal effect on H: barnyard grass (criteria 0-5) ([18]; foliage application): 5 (Herbicidal rate of 90% or more (almost completely withered))
- herbicidal effect on I: wild oat (criteria 0-5) ([19]; foliage application): 0 (Herbicidal rate of 5% or less (almost no effect))
- herbicidal effect on J: blackgrass (criteria 0-5) ([20]; foliage application): 4 (Herbicidal rate of 70% or more and less than 90%)
- herbicidal effect on K: Italian ryegrass (criteria 0-5) ([21]; foliage application): 4 (Herbicidal rate of 70% or more and less than 90%)
- herbicidal effect on M: velvetleaf (criteria 0-5) ([22]; foliage application): 4 (Herbicidal rate of 70% or more and less than 90%)
- herbicidal effect on N: redroot pigweed (criteria 0-5) ([23]; foliage application): 5 (Herbicidal rate of 90% or more (almost completely withered))
- herbicidal effect on O: lambsquarters (criteria 0-5) ([24]; foliage application): 4 (Herbicidal rate of 70% or more and less than 90%)
- herbicidal effect on P: chickweed (criteria 0-5) ([25]; foliage application): 5 (Herbicidal rate of 90% or more (almost completely withered))
- herbicidal effect on R: persian speedwell (criteria 0-5) ([26]; foliage application): 5 (Herbicidal rate of 90% or more (almost completely withered))

SMILES: Cc1nn(C)c(=O)c(-c2c(-c3ccc(F)cc3)sc3c(Cl)cccc23)c1O [4-015]
- herbicidal effect on barnyard grass (H) ([1]; 320 g/ha): 3 (Herbicidal rate of 40% or more and less than 70%)
- herbicidal effect on Chinese sprangletop (D) ([2]; 320 g/ha): 3 (Herbicidal rate of 40% or more and less than 70%)
- herbicidal effect on rice flat sedge (E) ([3]; 320 g/ha): 5 (Herbicidal rate of 90% or more (almost completely withered))
- Herbicidal effect by soil treatment, F: southern crabgrass [4]: 0 (Herbicidal rate of 5% or less (almost no effect))
- Herbicidal effect by soil treatment, G: green foxtail [5]: 0 (Herbicidal rate of 5% or less (almost no effect))
- Herbicidal effect by soil treatment, H: barnyard grass [6]: 0 (Herbicidal rate of 5% or less (almost no effect))
- Herbicidal effect by soil treatment, I: wild oat [7]: 0 (Herbicidal rate of 5% or less (almost no effect))
- Herbicidal effect by soil treatment, J: blackgrass [8]: 0 (Herbicidal rate of 5% or less (almost no effect))
- Herbicidal effect by soil treatment, K: Italian ryegrass [9]: 0 (Herbicidal rate of 5% or less (almost no effect))
- Herbicidal effect by soil treatment, L: windgrass [10]: 0 (Herbicidal rate of 5% or less (almost no effect))
- Herbicidal effect by soil treatment, M: velvetleaf [11]: 0 (Herbicidal rate of 5% or less (almost no effect))
- Herbicidal effect by soil treatment, N: redroot pigweed [12]: 2 (Herbicidal rate of 20% or more and less than 40%)
- Herbicidal effect by soil treatment, O: lambsquarters [13]: 3 (Herbicidal rate of 40% or more and less than 70%)
- Herbicidal effect by soil treatment, P: chickweed [14]: 0 (Herbicidal rate of 5% or less (almost no effect))
- Herbicidal effect by soil treatment, R: persian speedwell [15]: 0 (Herbicidal rate of 5% or less (almost no effect))
- herbicidal effect on F: southern crabgrass (evaluation grade 0-5) [16, 28]: 0 (Herbicidal rate of 5% or less (almost no effect))
- herbicidal effect on G: green foxtail (evaluation grade 0-5) [17, 28]: 0 (Herbicidal rate of 5% or less (almost no effect))
- herbicidal effect on H: barnyard grass (evaluation grade 0-5) [18, 28]: 0 (Herbicidal rate of 5% or less (almost no effect))
- herbicidal effect on I: wild oat (evaluation grade 0-5) [19, 28]: 0 (Herbicidal rate of 5% or less (almost no effect))
- herbicidal effect on J: blackgrass (evaluation grade 0-5) [20, 28]: 0 (Herbicidal rate of 5% or less (almost no effect))
- herbicidal effect on K: Italian ryegrass (evaluation grade 0-5) [21, 28]: 0 (Herbicidal rate of 5% or less (almost no effect))
- herbicidal effect on M: velvetleaf (evaluation grade 0-5) [22, 28]: 1 (Herbicidal rate of 5% or more and less than 20%)
- herbicidal effect on N: redroot pigweed (evaluation grade 0-5) [23, 28]: 1 (Herbicidal rate of 5% or more and less than 20%)
- herbicidal effect on O: lambsquarters (evaluation grade 0-5) [24, 28]: 1 (Herbicidal rate of 5% or more and less than 20%)
- herbicidal effect on P: chickweed (evaluation grade 0-5) [25, 28]: 5 (Herbicidal rate of 90% or more (almost completely withered))
- herbicidal effect on R: persian speedwell (evaluation grade 0-5) [26, 28]: 4 (Herbicidal rate of 70% or more and less than 90%)
